Assay results as given in US10538555B2, “Macrocyclic inhibitors of the PD-1/PD-L1 and CD80(B7-1)/PD-L1 protein/protein interactions” (BRISTOL-MYERS SQUIBB COMPANY, priority 2014, dated 2020).
Where a SMILES comes first, the peptide text is derived from it. Bridges are numbered along the chain shown (N, C = ends). [ ]: non-standard residue; d: D form. ξ: configuration not given here. Phe(3,4-F2) = N[C@@H](Cc1ccc(F)c(F)c1)C(=O)O; Phe(4-F) = N[C@@H](Cc1ccc(F)cc1)C(=O)O; Hyp = O=C(O)[C@@H]1C[C@@H](O)CN1; NMeF = CN[C@@H](Cc1ccccc1)C(=O)O; dNMeF = CN[C@H](Cc1ccccc1)C(=O)O; 3Pal = N[C@@H](Cc1cccnc1)C(=O)O; NMeE = CN[C@@H](CCC(=O)O)C(=O)O; dHyp = O=C(O)[C@H]1C[C@H](O)CN1; NMeL = CN[C@@H](CC(C)C)C(=O)O; NMehSer = CN[C@@H](CCO)C(=O)O; NMeNle = CCCC[C@H](NC)C(=O)O; Pip = O=C(O)[C@@H]1CCCCN1; dPip = O=C(O)[C@H]1CCCCN1; hSer = N[C@@H](CCO)C(=O)O; NMeA = CN[C@@H](C)C(=O)O; Orn = NCCC[C@H](N)C(=O)O; dThz = O=C(O)[C@H]1CSCN1; Dab = NCC[C@H](N)C(=O)O; Dap = NC[C@H](N)C(=O)O; ξC = NC(CS)C(=O)O; Sar = CNCC(=O)O

Biological target: T1, Human PD-L1/PD-1 (Homo sapiens, UniProt Q9NZQ7)
T1 construct: TVMV protease cleavage site (C); made in house; host or cells: HEK293T cells
T1 sequence (Q9NZQ7 with tags, fused parts or gaps): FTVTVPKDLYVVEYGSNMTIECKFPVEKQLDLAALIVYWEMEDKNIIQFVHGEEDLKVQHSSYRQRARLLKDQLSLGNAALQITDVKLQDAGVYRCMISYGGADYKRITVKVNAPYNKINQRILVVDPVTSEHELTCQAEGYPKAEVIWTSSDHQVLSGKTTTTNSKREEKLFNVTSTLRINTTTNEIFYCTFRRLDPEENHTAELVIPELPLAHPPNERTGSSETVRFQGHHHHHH
Test: HTRF Human PD-L1/PD-1 binding assay (PD-1-Ig/PD-L1-His)
Settings: PD-L1-His 10 nM, PD-1-Ig 20 nM; class symbol; read-out: HTRF Human PD-L1/PD-1 Binding Assay IC50 Range
How it was run: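 Inhibitors were preincubated 15 min with human PD-L1(18-239)-His (10 nM final), then PD-1(25-167)-Ig (20 nM final) was added for 15 min in dPBS/0.1% BSA/0.05% Tween-20. Eu-cryptate anti-Ig (1 nM) and APC anti-His (20 nM) were added; 665/620 nm ratio read after 30 min.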

Compound	IC50 [µM]
CCCC[C@H]1C(=O)N(C)CC(=O)N[C@@H](CC(=O)O)C(=O)N[C@@H](C(C)C)C(=O)N(C)[C@@H](Cc2ccccc2)C(=O)N[C@@H](Cc2ccc(O)cc2)C(=O)N(C)CC(=O)N[C@@H](Cc2c[nH]c3ccccc23)C(=O)N[C@@H](Cc2ccc(O)cc2)C(=O)N[C@@H](CC(C)C)C(=O)N[C@H](C(=O)NCC(N)=O)CSCC(=O)N[C@@H](Cc2cccnc2)C(=O)N(C)[C@@H](Cc2ccccc2)C(=O)N1C [Example 3243] ({CH2CO}-[3Pal][NMeF][NMeNle][Sar]DV[NMeF]Y[Sar]WYLCG-NH2; thioether N-13)	0.01 to 0.0999
CCCC[C@H]1C(=O)N(C)[C@@H](CCCC)C(=O)N[C@@H](CCC(=O)O)C(=O)N[C@H](C(=O)NCC(N)=O)CSCC(=O)N[C@@H](Cc2ccc(OC)cc2)C(=O)N(C)[C@@H](C)C(=O)N[C@@H](CC(N)=O)C(=O)N2CCC[C@H]2C(=O)N[C@@H](Cc2cnc[nH]2)C(=O)N[C@@H](CCC(=O)O)C(=O)N2C[C@H](O)C[C@H]2C(=O)N[C@@H](Cc2c[nH]c3ccccc23)C(=O)N[C@@H](CCN)C(=O)N[C@@H](Cc2c[nH]c3ccccc23)C(=O)N1C [Example 7109] ({CH2CO}-Y(Me)[NMeA]NPHE[Hyp]W[Dab]W[NMeNle][NMeNle]ECG-NH2; thioether N-14)	0.001 to 0.0099
CCCC[C@H]1C(=O)N[C@@H](CCC(N)=O)C(=O)N2CCCC[C@@H]2C(=O)N[C@@H](Cc2c[nH]c3ccccc23)C(=O)N[C@@H](Cc2ccc(O)cc2)C(=O)N[C@@H](CC(C)C)C(=O)N[C@H](C(=O)NCC(N)=O)CSCC(=O)N[C@@H](Cc2ccc(F)cc2)C(=O)N(C)[C@@H](Cc2ccccc2)C(=O)N(C)[C@@H](CCCC)C(=O)N2CCC[C@@H]2C(=O)N[C@@H](CC(=O)O)C(=O)N[C@@H](C(C)C)C(=O)N1C [Example 9216] ({CH2CO}-[Phe(4-F)][NMeF][NMeNle][dP]DV[NMeNle]Q[dPip]WYLCG-NH2; thioether N-13)	0.01 to 0.0999
CCCC[C@H]1C(=O)N(C)[C@@H](CCCC)C(=O)N[C@@H](CN)C(=O)N[C@H](C(N)=O)CSCC(=O)N[C@@H](Cc2ccc(O)cc2)C(=O)N(C)[C@@H](C)C(=O)N[C@@H](CC(N)=O)C(=O)N2CCC[C@H]2C(=O)N[C@@H](CN)C(=O)N[C@@H](CC(C)C)C(=O)N2C[C@H](O)C[C@H]2C(=O)N[C@@H](Cc2c[nH]c3ccccc23)C(=O)N[C@@H](CO)C(=O)N[C@@H](Cc2cn(CC(=O)O)c3ccccc23)C(=O)N1C [Example 6140]	0.001 to 0.0099
CCCC[C@H]1C(=O)N[C@@H](CN)C(=O)N[C@H](C(=O)NCC(N)=O)CSCC(=O)N[C@@H](Cc2ccc(O)cc2)C(=O)N(C)[C@@H](C)C(=O)N[C@@H](CC(N)=O)C(=O)N2CCC[C@H]2C(=O)N[C@@H](Cc2c[nH]cn2)C(=O)N[C@@H](CCC(=O)O)C(=O)N2C[C@H](O)C[C@H]2C(=O)N[C@@H](Cc2c[nH]c3ccccc23)C(=O)N[C@@H](CCN)C(=O)N[C@@H](Cc2c[nH]c3ccccc23)C(=O)N(C)[C@@H](CCC(=O)O)C(=O)N1C [Example 5152] ({CH2CO}-Y[NMeA]NPHE[Hyp]W[Dab]W[NMeE][NMeNle][Dap]CG-NH2; thioether N-14)	0.01 to 0.0999
CCCC[C@H]1C(=O)N[C@@H](CC(N)=O)C(=O)N2CCC[C@H]2C(=O)N[C@@H](CO)C(=O)N[C@@H](CCO)C(=O)N2C[C@H](O)C[C@H]2C(=O)N[C@@H](Cc2c[nH]c3ccccc23)C(=O)N[C@@H](CCO)C(=O)N[C@@H](Cc2c[nH]c3ccccc23)C(=O)N(C)[C@@H](C)C(=O)N(C)[C@@H](C)C(=O)N[C@@H](CCC(=O)O)C(=O)NC(C(=O)NCC(N)=O)CSCC(=O)N[C@@H](Cc2ccc(O)cc2)C(=O)N1C (stereo partly shown) [Example 10218] ({CH2CO}-Y[NMeNle]NPS[hSer][Hyp]W[hSer]W[NMeA][NMeA]E[ξC]G-NH2; thioether N-14)	1 to 10
CCCC[C@H]1C(=O)N2CSC[C@@H]2C(=O)N[C@@H](CN)C(=O)N[C@@H](C(C)C)C(=O)N(C)[C@@H](Cc2ccccc2)C(=O)N[C@@H](Cc2ccc(O)cc2)C(=O)N2CCC[C@@H]2C(=O)N[C@@H](Cc2c[nH]c3ccccc23)C(=O)N[C@@H](Cc2ccc(O)cc2)C(=O)N[C@@H](CC(C)C)C(=O)N[C@H](C(=O)NCC(N)=O)CSCC(=O)N[C@@H](Cc2ccccc2)C(=O)N(C)[C@@H](Cc2ccccc2)C(=O)N1C [Example 10075] ({CH2CO}-F[NMeF][NMeNle][dThz][Dap]V[NMeF]Y[dP]WYLCG-NH2; thioether N-13)	0.01 to 0.0999
COCC[C@H]1C(=O)N2C[C@@H](O)C[C@@H]2C(=O)N[C@@H](CC(=O)O)C(=O)N[C@@H](C(C)C)C(=O)N(C)[C@H](Cc2ccccc2)C(=O)N[C@@H](Cc2ccc(OC)cc2)C(=O)N2C[C@@H](O)C[C@@H]2C(=O)N[C@@H](Cc2c[nH]c3ccccc23)C(=O)N[C@@H](Cc2ccc(O)cc2)C(=O)N[C@@H](CCCN)C(=O)N[C@H](C(=O)NCC(N)=O)CSCC(=O)N[C@@H](Cc2ccc(F)c(F)c2)C(=O)N(C)[C@@H](Cc2ccccc2)C(=O)N1C [Example 9240] ({CH2CO}-[Phe(3,4-F2)][NMeF][NMehSer](Me)[dHyp]DV[dNMeF]Y(Me)[dHyp]WY[Orn]CG-NH2; thioether N-13)	0.001 to 0.0099
CCCC[C@H]1C(=O)N(C)[C@@H](CCCC)C(=O)N[C@@H](CC(C)C)C(=O)N[C@H](C(=O)NCC(N)=O)CSCC(=O)N[C@@H](Cc2ccc(O)cc2)C(=O)N(C)[C@@H](C)C(=O)N[C@@H](CC(N)=O)C(=O)N2CCC[C@H]2C(=O)NCC(=O)N[C@@H](CCC(N)=O)C(=O)N2C[C@H](O)C[C@H]2C(=O)N[C@@H](Cc2c[nH]c3ccccc23)C(=O)NCC(=O)N[C@@H](Cc2c[nH]c3ccccc23)C(=O)N1C [Example 5183] ({CH2CO}-Y[NMeA]NPGQ[Hyp]WGW[NMeNle][NMeNle]LCG-NH2; thioether N-14)	0.01 to 0.0999
CCCC[C@H]1C(=O)N2CCC[C@@H]2C(=O)N[C@@H](CC(=O)O)C(=O)N[C@@H](C(C)C)C(=O)N(C)[C@@H](CCOC)C(=O)N[C@@H](Cc2ccc(O)cc2)C(=O)N2CCC[C@@H]2C(=O)N[C@@H](Cc2c[nH]c3ccccc23)C(=O)N[C@@H](Cc2ccc(O)cc2)C(=O)N[C@@H](CC(C)C)C(=O)N[C@H](C(=O)NCC(N)=O)CSCC(=O)N[C@@H](Cc2ccc(F)cc2)C(=O)N(C)[C@@H](Cc2ccccc2)C(=O)N1C [Example 9219] ({CH2CO}-[Phe(4-F)][NMeF][NMeNle][dP]DV[NMehSer](Me)Y[dP]WYLCG-NH2; thioether N-13)	0.1 to 0.99
CCCC[C@H]1C(=O)N(C)[C@@H](CCCC)C(=O)N[C@@H](CCCN)C(=O)N[C@H](C(=O)NCC(N)=O)CSCC(=O)N[C@@H](Cc2ccc(O)cc2)C(=O)N2CCCC[C@H]2C(=O)N[C@@H](CC(=O)O)C(=O)N2CCC[C@H]2C(=O)N[C@@H](Cc2c[nH]cn2)C(=O)N[C@@H](CCC(=O)O)C(=O)N2C[C@H](O)C[C@H]2C(=O)N[C@@H](Cc2c[nH]c3ccccc23)C(=O)N[C@@H](CO)C(=O)N[C@@H](Cc2c[nH]c3ccccc23)C(=O)N1C [Example 1536] ({CH2CO}-Y[Pip]DPHE[Hyp]WSW[NMeNle][NMeNle][Orn]CG-NH2; thioether N-14)	0.01 to 0.0999
CCCC[C@H]1C(=O)N[C@@H](CC(N)=O)C(=O)N2CCC[C@H]2C(=O)N[C@@H](CO)C(=O)N[C@@H](CCO)C(=O)N2C[C@H](O)C[C@H]2C(=O)N[C@@H](Cc2c[nH]c3ccccc23)C(=O)N[C@@H](CCO)C(=O)N[C@@H](Cc2c[nH]c3ccccc23)C(=O)N(C)[C@@H](C)C(=O)N(C)[C@@H](C)C(=O)N[C@@H](CCCN)C(=O)NC(C(=O)NCC(N)=O)CSCC(=O)N[C@@H](Cc2ccc(O)cc2)C(=O)N1C (stereo partly shown) [Example 10219] ({CH2CO}-Y[NMeNle]NPS[hSer][Hyp]W[hSer]W[NMeA][NMeA][Orn][ξC]G-NH2; thioether N-14)	1 to 10
CCCC[C@H]1C(=O)N(C)[C@@H](CCCC)C(=O)N[C@@H](CCC(=O)O)C(=O)N[C@H](C(=O)NCC(N)=O)CSCC(=O)N[C@@H](Cc2ccc(O)cc2)C(=O)N2CCCC[C@H]2C(=O)N[C@@H](CC(=O)O)C(=O)N2CCC[C@H]2C(=O)N[C@@H](CN)C(=O)N[C@@H](CCC(=O)O)C(=O)N2C[C@H](O)C[C@H]2C(=O)N[C@@H](Cc2c[nH]c3ccccc23)C(=O)N[C@@H](CCN)C(=O)N[C@@H](Cc2c[nH]c3ccccc23)C(=O)N1C [Example 1262] ({CH2CO}-Y[Pip]DP[Dap]E[Hyp]W[Dab]W[NMeNle][NMeNle]ECG-NH2; thioether N-14)	0.001 to 0.0099
CCCC[C@H]1C(=O)N2CCC[C@@H]2C(=O)N[C@@H](CC(=O)O)C(=O)N[C@@H](C(C)C)C(=O)N(C)[C@@H](CC(C)C)C(=O)N[C@@H](CCC(N)=O)C(=O)N2CCCC[C@@H]2C(=O)N[C@@H](Cc2c[nH]c3ccccc23)C(=O)N[C@@H](Cc2ccc(O)cc2)C(=O)N[C@@H](CC(C)C)C(=O)N[C@H](C(=O)NCC(N)=O)CSCC(=O)N[C@@H](Cc2ccc(F)cc2)C(=O)N(C)[C@@H](Cc2ccccc2)C(=O)N1C [Example 9254] ({CH2CO}-[Phe(4-F)][NMeF][NMeNle][dP]DV[NMeL]Q[dPip]WYLCG-NH2; thioether N-13)	1 to 10
CCCC[C@H]1C(=O)N(C)[C@@H](CCCC)C(=O)N[C@@H](CCC(=O)O)C(=O)NC(C(=O)NCC(N)=O)CSCC(=O)N[C@@H](Cc2ccc(O)cc2)C(=O)N(C)[C@@H](C)C(=O)N[C@@H](CC(N)=O)C(=O)N2CCC[C@H]2C(=O)N[C@@H](CC(N)=O)C(=O)N[C@@H](CC(C)C)C(=O)N2CCC[C@H]2C(=O)N[C@@H](Cc2c[nH]c3ccccc23)C(=O)N[C@@H](CC(=O)O)C(=O)N[C@@H](Cc2c[nH]c3ccccc23)C(=O)N1C (stereo partly shown) [Example 9172] ({CH2CO}-Y[NMeA]NPNLPWDW[NMeNle][NMeNle]E[ξC]G-NH2; thioether N-14)	0.1 to 0.99
CCCC[C@H]1C(=O)N[C@@H](CN)C(=O)N[C@H](C(=O)NCC(N)=O)CSCC(=O)N[C@@H](Cc2ccc(O)cc2)C(=O)N(C)[C@@H](C)C(=O)N[C@@H](CC(=O)O)C(=O)N2CCC[C@H]2C(=O)N[C@@H](Cc2c[nH]cn2)C(=O)N[C@@H](CCC(N)=O)C(=O)N2C[C@H](O)C[C@H]2C(=O)N[C@@H](Cc2c[nH]c3ccccc23)C(=O)N[C@@H](CO)C(=O)N[C@@H](Cc2c[nH]c3ccccc23)C(=O)N(C)[C@@H](CCOC)C(=O)N1C [Example 10139] ({CH2CO}-Y[NMeA]DPHQ[Hyp]WSW[NMehSer](Me)[NMeNle][Dap]CG-NH2; thioether N-14)	0.001 to 0.0099
